# Biological target: T1, Full length (FL) 3-Phosphoglycerate Dehydrogenase (PHGDH) (Homo sapiens, UniProt O43175)
# T1 construct: Full length (FL) 3-Phosphoglycerate Dehydrogenase (PHGDH) Diaphorase coupled assay (500 uM NAD)
# T1 sequence (O43175 1-533): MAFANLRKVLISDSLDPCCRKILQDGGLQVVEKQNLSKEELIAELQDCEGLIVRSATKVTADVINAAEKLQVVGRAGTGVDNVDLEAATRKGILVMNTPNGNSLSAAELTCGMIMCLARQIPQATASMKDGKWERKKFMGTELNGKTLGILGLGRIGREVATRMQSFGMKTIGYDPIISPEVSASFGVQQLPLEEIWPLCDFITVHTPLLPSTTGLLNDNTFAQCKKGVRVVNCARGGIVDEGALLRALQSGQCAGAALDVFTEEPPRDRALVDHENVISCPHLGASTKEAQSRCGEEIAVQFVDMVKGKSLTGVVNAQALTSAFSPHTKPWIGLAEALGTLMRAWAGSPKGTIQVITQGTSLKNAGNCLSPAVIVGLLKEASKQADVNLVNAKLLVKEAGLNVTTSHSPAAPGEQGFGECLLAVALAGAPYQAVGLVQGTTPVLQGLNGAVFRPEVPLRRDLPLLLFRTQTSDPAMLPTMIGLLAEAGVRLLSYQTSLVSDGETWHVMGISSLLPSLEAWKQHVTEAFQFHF
# Assay: Full length (FL) PHGDH Diaphorase coupled assay (500 uM NAD)
# Format: biochemical
# Conditions: 5 nM PHGDH, 30° C., 60 minutes
# Protocol: Full length (FL) 3-Phosphoglycerate Dehydrogenase (PHGDH) Diaphorase coupled assay (500 uM NAD)
# PHGDH activity was determined by detecting the NADH produced during the reaction. Diaphorase was used to catalyze the oxidation of NADH with the concomitant reduction of resazurin to the fluorescent product resorufin. Resorufin fluorescence quantitatively reflected the production of NADH by the PHGDH reaction. To drive the forward reaction, two enzymes in the serine synthesis pathway subsequent to PHGDH, Phosphoserine aminotransferase (PSAT1) and phosphoserine phosphatase (PSPH) were also added to the reaction.
row,Compound,IC50
1,COc1ccc2c(cc(C(=O)N[C@H](CO)c3ccc(C(=O)O)cc3F)n2C)c1Cl [Compound I-13],10 to 1000 nM
2,"COc1cc2c(cc(C(=O)N[C@H](CO)c3ccc(C(=O)O)cc3Cl)n2C)c(Cl)c1C [Compound I-16, 3-chloro-4-[(1S)-1-[(4-chloro-6-methoxy-1,5-dimethyl-1H-indol-2-yl)formamido]-2-hydroxyethyl]benzoic acid]",10 to 1000 nM
3,Cc1cc(CC(=O)O)ccc1[C@@H](CO)NC(=O)c1cc2c(Cl)c(Cl)ccc2n1C [Compound I-19],10 to 1000 nM
4,COc1cc2c(cc(C(=O)N[C@H](CO)c3ccc(C(=O)O)cc3F)n2C)c(Cl)c1Cl [Compound I-20],10 to 1000 nM
5,"COc1ccc2c(cc(C(=O)N[C@H](CO)c3ccc(C(=O)O)cc3Cl)n2C)c1Cl [Compound I-21, 3-chloro-4-[(1S)-1-[(4-chloro-5-methoxy-1-methyl-1H-indol-2-yl)formamido]-2-hydroxyethyl]benzoic acid]",10 to 1000 nM
6,"COc1ccc2c(cc(C(=O)N[C@H](CO)c3ccc(CC(=O)O)cc3)n2C)c1Cl [Compound I-23, 2-{4-[(1S)-1-[(4-chloro-5-methoxy-1-methyl-1H-indol-2-yl)formamido]-2-hydroxyethyl]phenyl}acetic acid]",10 to 1000 nM
7,COc1cc2c(cc(C(=O)N[C@H](CO)c3ccc(CC(=O)O)cc3F)n2C)c(Cl)c1F [Compound I-24],10 to 1000 nM
8,"Cn1c(C(=O)N[C@H](CO)c2ccc(CC(=O)O)cc2)cc2c(Cl)c(Cl)ccc21 [Compound I-29, 2-{4-[(1S)-1-[(4,5-dichloro-1-methyl-1H-indol-2-yl)formamido]-2-hydroxyethyl]phenyl}acetic acid]",10 to 1000 nM
9,CC(NC(=O)c1cc2c(Cl)c(Cl)ccc2n1C)c1ccc(C(=O)O)cc1F (stereo not drawn) [Compound I-30],10 to 1000 nM
10,CC(NC(=O)c1cc2c(Cl)c(Cl)ccc2n1C)c1ccc(CC(=O)O)cc1F (stereo not drawn) [Compound I-31],10 to 1000 nM
11,Cn1c(C(=O)NC(CC2CC2)c2ccc(C(=O)O)cc2)cc2c(Cl)c(Cl)ccc21 (stereo not drawn) [Compound I-36],1000 to 5000 nM
12,Cn1c(C(=O)NCc2ccc(C(=O)O)cc2)cc2c(Cl)c(Cl)ccc21 [Compound I-37],1000 to 5000 nM
13,"Cn1c(C(=O)N[C@H](CO)c2ccc(C(=O)O)cc2)cc2c(Cl)c(Cl)c(OCC(=O)NCCO)cc21 [Compound I-40, 4-[(1S)-1-[[4,5-Dichloro-6-[2-(2-hydroxyethylamino)-2-oxo-ethoxy]-1-methyl-indole-2-carbonyl]amino]-2-hydroxy-ethyl]benzoic Acid]",10 to 1000 nM
14,Cn1c(C(=O)NC(c2ccc(C(=O)O)cc2)C2CC2)cc2c(Cl)c(Cl)ccc21 (stereo not drawn) [Compound I-42],1000 to 5000 nM
15,CC(NC(=O)c1cc2c(Cl)c(Cl)ccc2n1C)c1ccc(C(=O)O)cc1 (stereo not drawn) [Compound I-44],10 to 1000 nM

# Now from value to compound:
row,IC50,Compound
1,10 to 1000 nM,COc1cc2c(cc(C(=O)N[C@H](CO)c3ccc(C(=O)O)cc3F)n2C)c(Cl)c1C [Compound I-12]
2,10 to 1000 nM,CC(C(=O)O)c1ccc([C@@H](CO)NC(=O)c2cc3c(Cl)c(Cl)ccc3n2C)cc1 (stereo partly drawn) [Compound I-14]
3,10 to 1000 nM,"COc1cc2c(cc(C(=O)N[C@H](CO)c3ccc(C(=O)O)cc3Cl)n2C)c(Cl)c1Cl [Compound I-17, 3-chloro-4-[(1S)-1-[(4,5-dichloro-6-methoxy-1-methyl-1H-indol-2-yl)formamido]-2-hydroxyethyl]benzoic acid]"
4,10 to 1000 nM,Cc1cc(C(=O)O)ccc1[C@@H](CO)NC(=O)c1cc2c(Cl)c(Cl)ccc2n1C [Compound I-18]
5,10 to 1000 nM,Cn1c(C(=O)N[C@H](CO)c2ccc(C(=O)O)cc2F)cc2c(Cl)c(Cl)ccc21 [Compound I-22]
6,10 to 1000 nM,COc1cc2c(cc(C(=O)N[C@H](CO)c3ccc(CC(=O)O)cc3F)n2C)c(Cl)c1C [Compound I-26]
7,10 to 1000 nM,"Cn1c(C(=O)N[C@H](CO)c2ccc(C(=O)O)cc2Cl)cc2c(Cl)c(Cl)ccc21 [Compound I-27, 3-chloro-4-[(1S)-1-[(4,5-dichloro-1-methyl-1H-indol-2-yl)formamido]-2-hydroxyethyl]benzoic acid]"
8,10 to 1000 nM,"COc1cc2c(cc(C(=O)N[C@H](CO)c3ccc(CC(=O)O)cc3F)n2C)c(Cl)c1Cl [Compound I-28, 2-{4-[(1S)-1-[(4,5-dichloro-6-methoxy-1-methyl-1H-indol-2-yl)formamido]-2-hydroxyethyl]-3-fluorophenyl}acetic acid]"
9,10 to 1000 nM,"Cn1c(C(=O)N[C@H](CO)c2ccc(CC(=O)O)cc2F)cc2c(Cl)c(Cl)ccc21 [Compound I-32, 2-{4-[(1S)-1-[(4,5-dichloro-1-methyl-1H-indol-2-yl)formamido]-2-hydroxyethyl]-3-fluorophenyl}acetic acid]"
10,10 to 1000 nM,CC(NC(=O)c1cc2c(Cl)c(Cl)ccc2n1C)c1ccc(C(=O)O)cc1Cl (stereo not drawn) [Compound I-33]
11,1000 to 5000 nM,Cn1c(C(=O)NC(C)(C)c2ccc(C(=O)O)cc2)cc2c(Cl)c(Cl)ccc21 [Compound I-35]
12,10 to 1000 nM,"Cn1c(C(=O)N[C@H](CO)c2ccc(C(=O)O)cc2)cc2c(Cl)c(Cl)ccc21 [Compound I-43, 4-[(1S)-1-[(4,5-dichloro-1-methyl-1H-indol-2-yl)formamido]-2-hydroxyethyl]benzoic acid]"

# Biological target: T1, Full length (FL) 3-Phosphoglycerate Dehydrogenase (PHGDH)
# Assay: Full length (FL) PHGDH Diaphorase coupled assay (20 uM NAD)
# Format: biochemical
# Conditions: 10 nM PHGDH, 30° C., 60 minutes, read-out: FL Diaphorase 20 μM NAD (PHGDH activity inhibition, IC50)
# Protocol: Example 57: Full Length (FL) 3-Phosphoglycerate Dehydrogenase (PHGDH) Diaphorase Coupled Assay (20 uM NAD)
# Serial dilution of compounds were incubated in a volume of 20 μl in 384 well plates with the assay mixture containing 10 nM PHGDH, 500 nM PSAT1, 500 nM PSPH, 20 μM NAD^+, 80 uM 3-phosphoglycerate, 1 mM glutamate, 57 uM Resazurin and 0.2 mg/ml Diaphorase in assay buffer containing 50 mM Trisethanoloamine (TEA) pH8.0, 10 mM MgCl2, 0.01% Tween-20 and 0.05% Bovine Serum Albumin (BSA). The plate was then incubated at 30° C. for 60 minutes and resorufin fluorescence was measured at emission wavelength 598 nm following excitation at 525 nm. The positive control consisted of the complete reaction mixture with 4% DMSO and was set to 0% inhibition. […] Percent inhibition with the compounds was then calculated by normalizing the fluorescence observed at a given compound concentration to the positive and negative controls.
row,Compound,IC50
1,"CC(=O)NS(=O)(=O)NCCC(NC(=O)c1cc2c(Cl)c(Cl)ccc2n1C)c1cccc(C(=O)O)c1 (racemic) [Compound I-49, (±)-3-[3-(Acetylsulfamoylamino)-1-[(4,5-dichloro-1-methyl-indole-2-carbonyl)amino]propyl]benzoic Acid]",10 to 1000 nM
2,"Cn1c(C(=O)NC(C)(C)CC(N)=O)cc2c(Cl)c(Cl)ccc21 [Compound I-53, N-(3-amino-1,1-dimethyl-3-oxo-propyl)-4,5-dichloro-1-methyl-indole-2-carboxamide]",> 10000 nM

# Further lines, results first:
row,IC50,Compound
1,10 to 1000 nM,"CC(=O)NS(=O)(=O)N(C)CCC(NC(=O)c1cc2c(Cl)c(Cl)ccc2n1C)c1ccc(C(=O)O)cc1 (racemic) [Compound I-45, (±)-4-[3-[Acetylsulfamoyl(methyl)amino]-1-[(4,5-dichloro-1-methyl-indole-2-carbonyl)-amino]propyl]benzoic Acid]"
2,10 to 1000 nM,"Cn1c(C(=O)NC(CN)c2ccc(C(=O)O)cc2)cc2c(Cl)c(Cl)ccc21 (racemic) [Compound I-46, (±)-4-(2-Amino-1-(4,5-dichloro-1-methyl-1H-indole-2-carboxamido)ethyl) benzoic Acid]"
3,1000 to 5000 nM,"CC(=O)NS(=O)(=O)NCCC(NC(=O)c1cc2c(Cl)c(Cl)ccc2n1C)c1cccc(CO)c1 (racemic) [Compound I-48, (±)-N-[3-(acetylsulfamoylamino)-1-[3-(hydroxymethyl)phenyl]propyl]-4,5-dichloro-1-methyl-indole-2-carboxamide]"
4,1000 to 5000 nM,"CC(=O)NS(=O)(=O)NCCC(NC(=O)c1cc2c(Cl)c(Cl)ccc2n1C)c1ccccc1 (racemic) [Compound I-50, (±)-N-[3-(acetylsulfamoylamino)-1-phenyl-propyl]-4,5-dichloro-1-methyl-indole-2-carboxamide]"
5,10 to 1000 nM,"CC(=O)NS(=O)(=O)NCCC(NC(=O)c1cc2c(Cl)c(Cl)ccc2n1C)c1ccc(C(=O)O)cc1 (stereo not drawn) [Compound I-47, 4-[3-(Acetylsulfamoylamino)-1-[(4,5-dichloro-1-methyl-indole-2-carbonyl)amino]propyl]benzoic Acid]"
6,5000 to 10000 nM,"CC(=O)NS(=O)(=O)N(C)CCCNC(=O)c1cc2c(Cl)c(Cl)ccc2n1C [Compound I-51, N-[3-[acetylsulfamoyl(methyl)amino]propyl]-4,5-dichloro-1-methyl-indole-2-carboxamide]"
7,1000 to 5000 nM,"CC(=O)NS(=O)(=O)NCCCNC(=O)c1cc2c(Cl)c(Cl)ccc2n1C [Compound I-52, N-[3-(acetylsulfamoylamino)propyl]-4,5-dichloro-1-methyl-indole-2-carboxamide]"

# From patent publication US11535593B2, “3-phosphoglycerate dehydrogenase inhibitors and uses thereof” (Raze Therapeutics, Inc., priority 2016, dated 2022)
